Assay results as given in patent publication US20230220047A1, “PEPTIDES FOR TREATMENT OF SEPSIS AND CANCER” (NORWEGIAN UNIVERSITY OF SCIENCE AND TECHNOLOGY (NTNU), priority 2020, published 2023).

Tested on: THP-1 WT cells and THP-1 TRAM^CHERRY
Experiment: Confocal analysis of bacterial bioparticle uptake by THP-1 cells
Type: cell-based, human
Conditions: 15 μM, 30 min pre-incubation
Description: Cells were pre-incubated with Pen or P7-Pen peptides, followed by addition of Alexa Fluor 488-labeled bioparticles for the times indicated (15, 30 or 45 min). Fluorescent bacteria particles were counted by spot-detection in Bitplane Imaris imaging software and used to calculate the number of particles per cell. […] Pre-incubation with 3 μM cytochalasin D (CytoD, and inhibitor of actin polymerization) inhibited uptake of E. coli to a similar extent as P7-Pen.
THP-1 cells, THP-1^cherry cells or human PBMC were seeded in 24-well glass-bottom plates (MatTek Corporation), 125,000 cells/well. The THP-1 cells were differentiated into macrophages with 60 ng/ml PMA for 72 h and thereafter rested for 48 h, whereas the PBMC were used the day after isolation. The P7-penatratin peptide or control peptide was added to the cells 30 min before stimulation at 15 μM concentration. If used, 3 μM cytochalasin D (CytoD) was added simultaneously. […] A spot detection mode in the Bitplan Imaris software was used to define individual phagosomes and cells were counted manually. […] Fluorescence voxel intensity of TRAM^cherry at the phagosome is also presented. Statistical significance was calculated in GraphPad Prism by One-way ANOVA Kruskal-Wallis multiple comparison test. […]

Substance: Ac-ITVYASVTLTGRQIKIWFQNRRMKWKK-NH2 [Peptide P7-Pen]
- uptake of S. aureus bioparticles (THP-1 TRAM^CHERRY): inhibited
- uptake of E. coli particles (THP-1 WT and THP-1 TRAM^CHERRY): inhibited
